Entries after “also recorded” stand apart in the source; their conditions may differ.
Experiments:
[1] = system: detached leaves of crop species; assay: Water loss analyses in diverse species; assay type: in vivo, soybean, barley, maize and other species; conditions: over a period of 2 hours
Description: (§1) FIG. 13A-FIG. 13E. LC66C6 modulates ABA responses in diverse species. Germination inhibition (A) and transpirational water loss in detached leaves 2-hours after detachment (B) in response to compounds shown. The expression of ABA-responsive marker genes in Soybean (C), Barley (D) and Maize (E) after application of chemicals. D, P, L and A indicate DMSO, pyrabactin, LC66C6 and (+)-ABA, respectively.
For water loss analyses using soybean barley and maize, 100 μM chemical solution containing 0.05% Tween-20 was sprayed on to the aerial parts of the plants. The soybean, barley and maize plants used were approximately 4-, 2- and 2-weeks old respectively. Compounds were applied 16 hours before water loss assays were conduction. To measure water loss entire shoots were detached and their fresh weight monitored.

Arabidopsis seeds = assay: Arabidopsis germination inhibition, wild type and mutants, Example 2; assay type: in vivo
Description: FIG. 5A-FIG. 5D. Novel ABA agonists inhibit germination of Arabidopsis seeds more strongly than pyrabactin. (A) and (B) Comparison of seed germination inhibition by ABA agonists. (C) and (D) the effects of ABA and LC66C6 (also called quinabactin) on Arabidopsis ABA signaling- and biosynthesis-deficient mutants on germination (C) and seedling establishment (D). Seeds were sown on ½×MS agar plate containing chemicals, and were stored at 4° C. for 4 days, then transferred at 22±2° C. Photographs (A and C) and germination (B) or green cotyledon (D) scores were assessed after a 4-day incubation under continuous illumination.
As a third screening approach, the Life Chemicals library was also screened for Arabidopsis germination inhibitors in solidified agar medium containing 0.5×MS salts, 0.5% sucrose and 25 μM test compound. Hits from the germination assay were subsequently tested in yeast two hybrid assays. Hit compounds were restocked from their original vendors and used in secondary screens and compound characterization. […]
For Arabidopsis germination and hypocotyl growth inhibition analysis, seeds after-ripened about 4 weeks were surface-sterilized with a solution containing 5% NaClO and 0.05% Tween-20 for 10 minutes, and rinsed with water four times. […] Germination was determined after a 4-day incubation, whereas hypocotyl growth was photographed after 6-day incubation.

[2] = system: ABI2 with PYR/PYL receptors; assay: Receptor-mediated PP2C inhibition assay with ABI2, Example 1; assay type: biochemical, Arabidopsis; conditions: 10 μM; receptors PYR1, PYL1, PYL2, PYL3 and PYL5
Description: FIG. 2A-FIG. 2C. Novel ABA agonists inhibit PPC2 activity through multiple PYR/PYL. (A) Chemical structure of naturally occurring (+)-ABA and selected ABA agonists. (B) and (C) HAB1, ABU, and ABI2 PP2C enzyme activity based ABA-agonist assays for various receptors in the presence or absence of 10 μM each test chemical.
HAB1 and PYL proteins were expressed and purified as described previously (Park S Y, et al. (2009) Abscisic Acid Inhibits Type 2C Protein Phosphatases via the PYR/PYL Family of START Proteins. Science 324(5930):1068-1071), with minor modifications. To obtain GST-HAB1, -ABI1 and -ABI2 fusion proteins, the HAB1 cDNA was cloned into pGex-2T whereas ABI1 and ABI2 cDNAs were cloned into the vector pGex-4T-1. […] After 16 hours incubation at 15° C., cells were harvested and recombinant proteins were purified on glutathione agarose as described previously (Park S Y, et al. (2009). To obtain 6×His-PYL receptor fusion proteins, receptor cDNAs for all 13 ABA receptors were cloned into the vector pET28 and expressed and purified as described previously (Mosquna A, et al. (2011) Potent and selective activation of abscisic acid receptors in vivo by mutational stabilization of their agonist-bound conformation. PNAS 108(51):20838-20843); this yielded soluble and functional protein (assessed using receptor-mediated PP2C inhibition assays) for all receptors except PYL7, PYL11 and PYL12. […]

GmNAC4 and GmbZIP1 = assay: Quantitative RT-PCR of ABA-responsive genes in soybean; assay type: in vivo
Excerpt: as §1
Total RNA was isolated using Plant RNA purification reagent (Invitrogen, USA) according to the manufacturer's instructions. cDNA was synthesized from 1 μg of total RNA using the QantiTec reverse transcription kit (Qiagen, USA). Real-time PCR using Maxima® SYBR Green/Fluorescein qPCR Master Mix (Fermentas) was performed with the iQ5 real-time PCR detection system (Bio-Rad, Hercules, Calif.). The relative amounts of target mRNAs were determined using the relative standard curve method and were normalized by relative amount of internal control mRNA. Biological triplicate experiments were performed.

In the case of `CCCN1C(=O)CCc2cc(NS(=O)(=O)Cc3ccc(C)cc3)ccc21` [LC66C6], the “Transpirational water loss in detached leaves of diverse species” value [1] is reported as “reduces transpirational water loss”, the “Inhibition of germination of wild-type seeds” value (Arabidopsis seeds) is reported as “nearly as effective, on a per mole basis, at inhibiting germination as (+)-ABA; also recorded: one of the most effective agonists, after (+)-ABA, at inhibiting germination of wild-type seeds” and the “PP2C inhibition of ABI2” value [2] is reported as > 70%. The “Expression of ABA-responsive genes GmNAC4 and GmbZIP1” value (GmNAC4 and GmbZIP1) was “strongly induces”.

— patent publication US20160280651A1, “COMPOUNDS THAT INDUCE ABA RESPONSES” (THE REGENTS OF THE UNIVERSITY OF CALIFORNIA, priority 2013, published 2016)
